In patent US20250171462A1 (NICO Therapeutics, Inc., priority 2022, published 2025):
Like-named read-outs stand apart in the source and are kept apart here.

Biological target: T1, full-length SARM1 (FL-SARM1) (Homo sapiens, UniProt Q6SZW1)
T1 sequence (Q6SZW1 28-724): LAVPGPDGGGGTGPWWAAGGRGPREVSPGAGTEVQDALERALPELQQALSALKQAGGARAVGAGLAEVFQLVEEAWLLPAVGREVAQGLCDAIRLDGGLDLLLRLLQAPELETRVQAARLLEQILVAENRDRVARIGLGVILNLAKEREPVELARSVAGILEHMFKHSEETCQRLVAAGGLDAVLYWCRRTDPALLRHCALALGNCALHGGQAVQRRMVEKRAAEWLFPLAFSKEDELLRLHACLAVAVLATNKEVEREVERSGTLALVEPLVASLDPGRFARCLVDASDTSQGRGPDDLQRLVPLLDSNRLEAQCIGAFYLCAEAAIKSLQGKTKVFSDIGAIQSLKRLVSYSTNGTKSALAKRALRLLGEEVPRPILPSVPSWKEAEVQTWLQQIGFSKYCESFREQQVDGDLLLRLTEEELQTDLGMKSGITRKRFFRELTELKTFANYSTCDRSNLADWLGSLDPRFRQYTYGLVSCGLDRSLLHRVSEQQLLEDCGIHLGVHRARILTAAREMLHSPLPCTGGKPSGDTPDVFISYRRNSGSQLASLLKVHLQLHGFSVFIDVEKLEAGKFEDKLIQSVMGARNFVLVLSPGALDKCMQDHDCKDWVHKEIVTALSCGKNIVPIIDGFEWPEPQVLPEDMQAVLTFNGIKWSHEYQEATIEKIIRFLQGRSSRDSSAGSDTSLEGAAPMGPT
Test: FL-SARM1 cellular lysate assay (NAD/NADH-Glo detection of remaining NAD+, NMN-activated)

[1] = Activity (IC50 class), 11 point curve
[2] = Activity (μM) (IC50), 11 point curve
[3] = read-out: Activity (IC50 class), 11 point curve

| SMILES | IC50 [1] | IC50 [2] | IC50 [3] |
| --- | --- | --- | --- |
| Cc1ccc(NC(=O)C2COC(C)(C)CN2c2ncccn2)cc1-c1ncccn1 (single isomer, unassigned) [Example 207, 6,6-dimethyl-N-(4-methyl-3-(pyrimidin-2-yl)phenyl)-4-(pyrimidin-2-yl)morpholine-3-carboxamide] | > 10 µM | > 50 µM |  |
| O=C(Nc1ccc(C(F)(F)F)c(-c2ccc(F)cn2)c1)[C@@H]1CC1(F)F [Example 125, (1S)-2,2-difluoro-N-[3-(5-fluoropyridin-2-yl)-4-(trifluoromethyl)phenyl]cyclopro-pane-1-carboxamide] | 1 to 10 µM | 3.5 µM |  |
| Cc1ccc(NC(=O)[C@H]2CC[C@@H](C)N2c2ccc(F)cn2)cc1-c1ncc(F)cn1 [Example 316] | 1 to 10 µM | 1.7 µM |  |
| Cc1ccc(NC(=O)N2C3CC(C)CC2(C(C)O)C3)cc1-c1ncc(F)cn1 (single isomer, unassigned) [Example 193, cis-N-(3-(5-fluoropyrimidin-2-yl)-4-methylphenyl)-1-(1-hydroxyethyl)-3-methyl-6-azabicyclo[3.1.1]heptane-6-carboxamide] |  | 0.1 µM | 0.0001 to 1 µM |
| CC[C@H]1C[C@H]1C(=O)Nc1ccc(C)c(-c2ccccn2)c1 (single isomer, unassigned) [Example 109, cis-2-ethyl-N-(4-methyl-3-pyridin-2-ylphenyl)cyclopropane-1-carboxamide] |  | 0.3 µM | 0.0001 to 1 µM |
| Cc1ccc(NC(=O)N2C3CCCC2C3)cc1-c1ccc(F)cn1 [Example 40, N-(3-(5-fluoropyridin-2-yl)-4-methylphenyl)-6-azabicyclo[3.1.1]heptane-6-carboxamide] |  | 0.08 µM | 0.0001 to 1 µM |
| COc1cccc(-c2cc(NC(=O)[C@@H]3CC3(F)F)ccc2C)n1 [Example 153, (1S)-2,2-difluoro-N-[3-(6-methoxypyridin-2-yl)-4-methylphenyl]cyclopropane-1-carboxamide] | > 10 µM | 18 µM |  |
| Cc1ccc(NC(=O)[C@@H]2C[C@@H]3C[C@@H]3N2c2ncccn2)cc1-c1ncc(F)cn1 [Example 268, (1S,3S,5S)-N-[3-(5-fluoropyrimidin-2-yl)-4-methylphenyl]-2-pyrimidin-2-yl-2-azabicyclo[3.1.0]hexane-3-carboxamide] | > 10 µM | 33 µM |  |
| Cc1ccc(NC(=O)[C@H]2CC[C@H](C)N2c2ccccn2)cc1-c1ncc(F)cn1 [Example 281, (2R,5S)-N-[3-(5-fluoropyrimidin-2-yl)-4-methylphenyl]-5-methyl-1-pyridin-2-ylpyrrolidine-2-carboxamide] | 1 to 10 µM | 1.3 µM |  |
| Cc1ccc(NC(=O)[C@H]2C[C@@H]3[C@H](C2)C3(F)F)cc1-c1cccnn1 [Example 177, cis-6,6-difluoro-N-(4-methyl-3-(pyridazin-3-yl)phenyl)bicyclo[3.1.0]hexane-3-carboxamide] | > 10 µM | 23 µM |  |
| Cc1ccc(NC(=O)[C@H]2C[C@H]3C[C@H]3N2c2nccnn2)cc1-c1ncc(F)cn1 [Example 262, (1R,3R,5R)-N-(3-(5-fluoropyrimidin-2-yl)-4-methylphenyl)-2-(1,2,4-triazin-3-yl)-2-azabicyclo[3.1.0]hexane-3-carboxamide] | 1 to 10 µM | 2.5 µM |  |
| Cc1ccc(NC(=O)C2CC(C(F)(F)F)C2)cc1-c1ccccn1 (mixture of isomers) [Example 130, N-(4-methyl-3-pyridin-2-ylphenyl)-3-(trifluoromethyl)cyclobutane-1-carboxamide] | 1 to 10 µM | 2.6 µM |  |
| COC(C)[C@@]12CC(C[C@@H](C)C1)N2C(=O)Nc1ccc(C)c(-c2ncc(F)cn2)c1 (single isomer, unassigned) [Example 192, cis-N-(3-(5-fluoropyrimidin-2-yl)-4-methylphenyl)-1-(−1-methoxyethyl)-3-methyl-6-azabicyclo[3.1.1]heptane-6-carboxamide] | 1 to 10 µM | 1 µM |  |
| O=C(Nc1ccc(C2CC2)c(-c2ccc(F)cn2)c1)N1C2CCCC1C2 [Example 36, N-(4-cyclopropyl-3-(5-fluoropyridin-2-yl)phenyl)-6-azabicyclo[3.1.1]heptane-6-carboxamide] | 1 to 10 µM | 1.1 µM |  |
| Cc1ccc(NC(=O)[C@H]2[C@H](C)C2(F)F)cc1-c1ccccn1 (racemic) [Example 135, trans-2,2-difluoro-3-methyl-N-(4-methyl-3-pyridin-2-ylphenyl)cyclopropane-1-carboxamide] | 1 to 10 µM | 3.3 µM |  |
| Cc1ccc(NC(=O)N2C[C@@H]3C[C@H]2CN3c2ccccc2)cc1-c1ccccn1 [Example 13, (1S,4S)-N-(4-methyl-3-(pyridin-2-yl)phenyl)-5-phenyl-2,5-diazabicyclo[2.2.1]heptane-2-carboxamide] |  | 0.7 µM | 0.0001 to 1 µM |

| SMILES | IC50 [1] | IC50 [2] | IC50 [3] |
| --- | --- | --- | --- |
| Cc1ccc(NC(=O)C2CCc3cccnc32)cc1-c1ncc(F)cn1 (racemic) [Example 290, N-[3-(5-fluoropyrimidin-2-yl)-4-methylphenyl]-6,7-dihydro-5H-cyclopenta[b]pyridine-7-carboxamide] | > 10 µM | 17 µM |  |
| Cc1ccc(NC(=O)N2CCCC2c2ncccn2)cc1-c1ccccn1 (racemic) [Example 91, N-(4-methyl-3-pyridin-2-ylphenyl)-2-pyrimidin-2-ylpyrrolidine-1-carboxamide] | > 10 µM | 16 µM |  |
| Cc1ccc(NC(=O)[C@H]2CC[C@@H](C)CN2c2ncccn2)cc1-c1ncccn1 (racemic) [Example 327] |  | 0.5 µM | 0.0001 to 1 µM |
| Cc1ccc(NC(=O)[C@H]2[C@H](C)OCCN2c2ccccn2)cc1-c1ncc(F)cn1 [Example 270, (2S,3R)-N-(3-(5-fluoropyrimidin-2-yl)-4-methylphenyl)-2-methyl-4-(pyridin-2-yl)morpholine-3-carboxamide] | 1 to 10 µM | 9.5 µM |  |
| Cc1ccc(-c2cc(NC(=O)[C@@H]3CC3(F)F)ccc2C)nc1 [Example 162, (1S)-2,2-difluoro-N-[4-methyl-3-(5-methylpyridin-2-yl)phenyl]cyclopropane-1-carboxamide] | 1 to 10 µM | 2.5 µM |  |
| Cc1ccc(NC(=O)N2C3CCC2[C@@H](C)C3)cc1-c1ncc(F)cn1 (single isomer, unassigned) [Example 195, cis-N-(3-(5-fluoropyrimidin-2-yl)-4-methylphenyl)-2-methyl-7-azabicyclo[2.2.1]heptane-7-carboxamide] |  | 0.3 µM | 0.0001 to 1 µM |
| CCc1ccc(NC(=O)N2C3CCCC2C3)cc1-c1ccc(F)cn1 [Example 28, N-(4-ethyl-3-(5-fluoropyridin-2-yl)phenyl)-6-azabicyclo[3.1.1]heptane-6-carboxamide] |  | 0.6 µM | 0.0001 to 1 µM |
| CC[C@H]1C[C@H]1C(=O)Nc1ccc(C)c(-c2ccccn2)c1 (single isomer, unassigned) [Example 110, cis-2-ethyl-N-(4-methyl-3-pyridin-2-ylphenyl)cyclopropane-1-carboxamide] | 1 to 10 µM | 6 µM |  |
| N#CCc1ccc(NC(=O)N2C3CCCC2C3)cc1-c1ccccn1 [Example 19, N-(4-(cyanomethyl)-3-(pyridin-2-yl)phenyl)-6-azabicyclo[3.1.1]heptane-6-carboxamide] |  | 0.2 µM | 0.0001 to 1 µM |
| Cc1ccc(NC(=O)N2C3C[C@@H]2CC[C@H]3C)cc1-c1ccccn1 (single isomer, unassigned) [Example 49, trans-2-methyl-N-(4-methyl-3-(pyridin-2-yl)phenyl)-6-azabicyclo[3.1.1]heptane-6-carboxamide] |  | 0.2 µM | 0.0001 to 1 µM |
| Cc1ccc(NC(=O)N2CCCC2c2cnn(C)c2)cc1-c1ccccn1 (racemic) [Example 90, 2-(1-methylpyrazol-4-yl)-N-(4-methyl-3-pyridin-2-ylphenyl)pyrrolidine-1-carboxamide] | > 10 µM | 14 µM |  |
| Cc1ccc(NC(=O)C2C3CCC2C3)cc1-c1ccccn1 (centres unmarked) [Example 123, N-(4-methyl-3-pyridin-2-ylphenyl)bicyclo[2.1.1]hexane-5-carboxamide] |  | 0.3 µM | 0.0001 to 1 µM |
| Cc1ccc(NC(=O)CN2C(=O)COCc3ccccc32)cc1-c1ccccn1 [Example 144, N-(4-methyl-3-pyridin-2-ylphenyl)-2-(2-oxo-5H-4,1-benzoxazepin-1-yl)acetamide] | 1 to 10 µM | 9.7 µM |  |
| Cc1ccc(NC(=O)C(C)(C)C2CCC2)cc1-c1cccnn1 [Example 296, 2-cyclobutyl-2-methyl-N-(4-methyl-3-pyridazin-3-ylphenyl)propanamide] | 1 to 10 µM | 4.3 µM |  |
| Cc1ccc(NC(=O)[C@H]2C[C@H]3C[C@H]3N2c2cncnn2)cc1-c1ncc(F)cn1 [Example 173, (1R,3R,5R)—N-(3-(5-fluoropyrimidin-2-yl)-4-methylphenyl)-2-(1,2,4-triazin-6-yl)-2-azabicyclo[3.1.0]hexane-3-carboxamide] | 1 to 10 µM | 4.2 µM |  |
